Measurements published in US20120010115A1, “PRESERVATIVE SYSTEM AND COMPOSITION BASED ON GLYCINATE AND DIHYDROXYPROPYL QUATERNARY AMMONIUM SALT COMBINATION” (CONOPCO, INC., D/B/A UNILEVER, priority 2010, published 2012).

Test system: Pseudomonas aeruginosa ATCC 9027
Assay: Challenge Test for the Evaluation of Preservative Capacity of Liquid Detergent and Personal Products
Format: cell-based
Settings: aqueous formula, each active 5%, pH 7.6, inoculum 1.06E+07 (Log 7)
Method: Experiments were conducted to evaluate antimicrobial activity against Pseudomonas aeruginosa of aqueous formulas containing 2,3-dihydroxypropyl trimethyl ammonium chloride (Glyceryl Quat), sodium cocoyl glycinate and combinations of these two materials. Samples were prepared at room temperature by mixing together sodium cocoyl glycinate and/or Glyceryl Quat and water. The pH was adjusted by addition of aqueous hydrochloric acid to reach a 7.6 value. Amounts of each of the active components was 5%. Test Method: Challenge Test for the Evaluation of Preservative Capacity of Liquid Detergent and Personal Products Test Microorganism: Pseudomonas aeruginosa ATCC 9027 obtained from American Type Culture Collection, Manassas, Va. 20108. Procedure: 20 grams of product were inoculated with 0.2 ml of the microorganism at a level of 1.06E+07 or Log 7. A single inoculation was performed. At 2 day, 7 day, 14 day and 21 day time points after inoculation a 1 gram sample was aseptically removed into a neutralizing fluid (TAT Broth) and plated using Letheen Agar. The plates were incubated at 30° C. for 7 days. At the end of the incubation time the plates were removed and examined for microbial growth. Calculation of Log Reduction: The microorganisms recovered were converted into Log10 and compared to initial inoculum count which then determined the Log Reduction. Logarithmic functions are the inverse of exponential functions. Log reduction was determined by the initial inoculum count minus the counts at each sampling time point.

## sodium cocoyl glycinate
2 day after inoculation
  Log Reduction Value: 1.1
7 day after inoculation
  Log Reduction Value: 1.1
14 day after inoculation
  Log Reduction Value: 0.8
21 day after inoculation
  Log Reduction Value: 0.2

## C[N+](C)(C)CC(O)CO.[Cl-] (centres unmarked) [Glyceryl Quat, 2,3-dihydroxypropyl trimethyl ammonium chloride]
2 day after inoculation
  Log Reduction Value: 2.1
7 day after inoculation
  Log Reduction Value: 1.5
14 day after inoculation
  Log Reduction Value: 2.8
21 day after inoculation
  Log Reduction Value: 3.4
